We go through 1 molecule from patent US20240180909A1, “Dosing Regimens for Elagolix” (AbbVie Inc., priority 2018, published 2024).

The series relates to premenopausal women with heavy menstrual bleeding associated with uterine fibroids. As to the kind of experiment: Twelve month study with 300 mg BID (initial studies and extension study), heavy menstrual bleeding responder rate. It counts as in vivo, human. How it is done: This study was a randomized, double-blind, multicenter, extension study designed to evaluate the efficacy and safety of elagolix alone and in combination with an exemplary low-dose hormone (add-back) therapy (estradiol (“E2”) 1.0 mg/norethindrone acetate (“NETA”) 0.5 mg) in premenopausal women with heavy menstrual bleeding associated with uterine fibroids for up to 12 months total (an initial 6 months on active treatment in one of two replicate initial (i.e., pivotal) studies and an additional 6 months in this extension study.
Subjects who received elagolix 300 mg twice daily or elagolix 300 mg twice daily in combination with E2/NETA in the initial studies continued to receive the same treatment (n=94 and 206, respectively) while subjects who received placebo in the initial studies were randomized in an equal ratio to one of the two treatment groups (elagolix 300 mg BID (n=56) or elagolix 300 mg BID+E2/NETA (n=54)).
The primary efficacy endpoint was the percentage of subjects meeting the responder criteria: a) menstrual blood loss (MBL) volume<80 mL during the final, AND b) 50% or greater reduction in MBL volume from baseline to the final month. […]

Consider `COc1cccc(-c2c(C)n(Cc3c(F)cccc3C(F)(F)F)c(=O)n(C[C@H](NCCCC(=O)O)c3ccccc3)c2=O)c1F` [Elagolix, 4-((R)-2-[5-(2-fluoro-3-methoxy-phenyl)-3-(2-fluoro-6-trifluoromethyl-benzyl)-4-methyl-2,6-dioxo-3,6-dihydro-2H-pyrimidin-1-yl]-1-phenyl-ethylamino)-butyric acid], for which, under “initial and extension studies, elagolix 300 mg BID”, the “Hypoestrogenic effects, such as hot flush and reduction in bone mineral density” value is listed as “observed”. Also, the safety signals result (up to twelve months of treatment) was “no new safety signals”.
